Data: patent publication US12180187B2, “1-phenyl-5-azinylpyrazolyl-3-oxyalkyl acids and their use for controlling unwanted plant growth” (BAYER AKTIENGESELLSCHAFT, priority 2019, dated 2024)

Legend:
[1] = system: LOLRI; assay: Pre-emergence action against LOLRI, 1280 g/ha; assay type: in vivo, Lolium rigidum; settings: visual scoring after about 3 weeks vs untreated controls, 100% = plants have died, 0% = like control plants
In short: (§1)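 Mono- and dicot weed seeds sown in sandy loam were treated on the covering soil surface with WP or EC formulations plus 0.5% additive at 600 L water/ha. Pots stayed in a greenhouse; damage was scored visually after ~3 weeks as percent versus untreated controls (100% = dead).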

[2] = system: SETVI; assay: Pre-emergence action at 320 g/ha against SETVI; assay type: in vivo, Setaria viridis; settings: visual scoring after about 3 weeks vs untreated controls
In short: (§2)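 Application: aqueous WP or EC with 0.5% additive on soil covering seeds, 600 l/ha. Read-out: visual percent damage after ~3 weeks in greenhouse, untreated pots as reference.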

[3] = system: LOLRI; assay: Post-emergence action against LOLRI, 1.28 kg/ha; assay type: in vivo, Lolium rigidum; settings: dosage 1280 g/ha, visual rating about 3 weeks after treatment vs untreated controls
In short: (§3)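 Greenhouse-grown weeds (sandy loam, twin-sown pots) were treated 2–3 weeks post-sowing at one leaf. The spray was an aqueous WP/EC preparation plus 0.5% additive, applied at 600 L/ha. Scoring was visual at ~3 weeks, 0–100% versus untreated controls.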

[4] = system: POAAN; assay: Pre-emergence action against POAAN, 1280 g/ha; assay type: in vivo, Poa annua; settings: visual scoring after about 3 weeks vs untreated controls, 100% = plants have died, 0% = like control plants
In short: as §1

[5] = system: AVEFA; assay: Pre-emergence action at 320 g/ha against AVEFA; assay type: in vivo; settings: visual scoring after about 3 weeks vs untreated controls
In short: as §2

[6] = system: ECHGC; assay: Pre-emergence action at 320 g/ha against ECHGC; assay type: in vivo, Echinochloa crus-galli; settings: visual scoring after about 3 weeks vs untreated controls
Excerpt: b) Seeds of monocotyledonous and dicotyledonous weed plants and crop plants are placed in plastic or organic planting pots and covered with soil. The compounds of the invention, formulated in the form of wettable powders (WP) or as emulsion concentrates (EC), are then applied onto the surface of the covering soil as aqueous suspension or emulsion with addition of 0.5% additive at a water application rate of 600 l/ha (converted). After the treatment, the pots are placed in a greenhouse and kept under good growth conditions for the trial plants. After about 3 weeks, the effect of the preparations is scored visually in comparison with untreated controls as percentages. For example, 100% activity=the plants have died, 0% activity=like control plants. Tables 13 to 26 below show the effects of selected compounds of the general formula (I) on various harmful plants and at an application rate corresponding to 320 g/ha, which were obtained by the experimental procedure mentioned above.

[7] = system: AMARE; assay: Pre-emergence action against AMARE, 1280 g/ha; assay type: in vivo, Amaranthus retroflexus; settings: scored visually after about 3 weeks vs untreated controls (100% = plants have died)
In short: as §1

[8] = system: KCHSC; assay: Post-emergence action against KCHSC, 1.28 kg/ha; assay type: in vivo, Bassia scoparia; settings: dosage 1280 g/ha, visual rating about 3 weeks after treatment vs untreated controls (100% = plants died)
In short: as §3

[9] = system: ABUTH; assay: Post-emergence action against ABUTH, 1.28 kg/ha; assay type: in vivo, Abutilon theophrasti; settings: dosage 1280 g/ha, visual rating about 3 weeks after treatment vs untreated controls (100% = plants died)
In short: as §3

[10] = system: SETVI; assay: Post-emergence action against SETVI, 1.28 kg/ha; assay type: in vivo, Setaria viridis; settings: dosage 1280 g/ha, visual rating about 3 weeks after treatment vs untreated controls
In short: as §3

[11] = system: ALOMY; assay: Pre-emergence action against ALOMY, 1280 g/ha; assay type: in vivo, Alopecurus myosuroides; settings: visual scoring after about 3 weeks vs untreated controls, 100% = plants have died, 0% = like control plants
In short: as §1

[12] = system: KCHSC; assay: Pre-emergence action against KCHSC, 1280 g/ha; assay type: in vivo, Bassia scoparia; settings: scored visually after about 3 weeks vs untreated controls (100% = plants have died)
In short: as §1

[13] = system: AMARE; assay: Post-emergence action against AMARE, 1.28 kg/ha; assay type: in vivo, Amaranthus retroflexus; settings: dosage 1280 g/ha, visual rating about 3 weeks after treatment vs untreated controls (100% = plants died)
In short: as §3

[14] = system: STEME; assay: Pre-emergence action against STEME, 1280 g/ha; assay type: in vivo, Stellaria media; settings: scored visually after about 3 weeks vs untreated controls (100% = plants have died)
In short: as §1

[15] = system: VERPE; assay: Post-emergence action against VERPE, 1.28 kg/ha; assay type: in vivo, Veronica persica; settings: dosage 1280 g/ha, visual rating about 3 weeks after treatment vs untreated controls (100% = plants died)
In short: as §3

[16] = system: ALOMY; assay: Post-emergence action against ALOMY, 1.28 kg/ha; assay type: in vivo, Alopecurus myosuroides; settings: dosage 1280 g/ha, visual rating about 3 weeks after treatment vs untreated controls
In short: as §3

[17] = system: VERPE; assay: Pre-emergence action at 320 g/ha against VERPE; assay type: in vivo, Veronica persica; settings: visual scoring after about 3 weeks vs untreated controls
In short: as §2

[18] = system: AMARE; assay: Pre-emergence action at 320 g/ha against AMARE; assay type: in vivo, Amaranthus retroflexus; settings: visual scoring after about 3 weeks vs untreated controls
In short: as §2

[19] = system: LOLRI; assay: Pre-emergence action at 320 g/ha against LOLRI; assay type: in vivo, Lolium rigidum; settings: visual scoring after about 3 weeks vs untreated controls
In short: as §2

[20] = system: ECHCG; assay: Pre-emergence action against ECHCG, 1280 g/ha; assay type: in vivo, Echinochloa crus-galli; settings: visual scoring after about 3 weeks vs untreated controls, 100% = plants have died, 0% = like control plants
In short: as §1

[21] = system: VERPE; assay: Pre-emergence action against VERPE, 1280 g/ha; assay type: in vivo, Veronica persica; settings: scored visually after about 3 weeks vs untreated controls (100% = plants have died)
In short: as §1

[22] = system: MATIN; assay: Pre-emergence action at 320 g/ha against MATIN; assay type: in vivo, Tripleurospermum inodorum (Matricaria inodora); settings: visual scoring after about 3 weeks vs untreated controls
In short: as §2

[23] = system: MATIN; assay: Pre-emergence action against MATIN, 1280 g/ha; assay type: in vivo, Tripleurospermum inodorum (Matricaria inodora); settings: scored visually after about 3 weeks vs untreated controls (100% = plants have died)
In short: as §1

[24] = system: ALOMY; assay: Pre-emergence action at 320 g/ha against ALOMY; assay type: in vivo, Alopecurus myosuroides; settings: scored visually after about 3 weeks vs untreated controls (100% = plants have died)
In short: as §2

[25] = system: MATIN; assay: Post-emergence action against MATIN, 1.28 kg/ha; assay type: in vivo, Tripleurospermum inodorum (Matricaria inodora); settings: dosage 1280 g/ha, visual rating about 3 weeks after treatment vs untreated controls (100% = plants died)
In short: as §3

[26] = system: POLCO; assay: Pre-emergence action at 320 g/ha against POLCO; assay type: in vivo, Fallopia convolvulus (Polygonum convolvulus); settings: visual scoring after about 3 weeks vs untreated controls
In short: as §2

[27] = system: DIGSA; assay: Post-emergence action against DIGSA, 1.28 kg/ha; assay type: in vivo, Digitaria sanguinalis; settings: dosage 1280 g/ha, visual rating about 3 weeks after treatment vs untreated controls
In short: as §3

[28] = system: VIOTR; assay: Pre-emergence action at 320 g/ha against VIOTR; assay type: in vivo, Viola tricolor; settings: dosage 320 g/ha
In short: as §2

[29] = system: DIGSA; assay: Pre-emergence action against DIGSA, 1280 g/ha; assay type: in vivo, Digitaria sanguinalis; settings: visual scoring after about 3 weeks vs untreated controls, 100% = plants have died, 0% = like control plants
In short: as §1

[30] = system: SETVI; assay: Pre-emergence action against SETVI, 1280 g/ha; assay type: in vivo, Setaria viridis; settings: visual scoring after about 3 weeks vs untreated controls, 100% = plants have died, 0% = like control plants
In short: as §1

[31] = system: POAAN; assay: Post-emergence action against POAAN, 1.28 kg/ha; assay type: in vivo, Poa annua; settings: dosage 1280 g/ha, visual rating about 3 weeks after treatment vs untreated controls
In short: as §3

[32] = system: ECHCG; assay: Post-emergence action against ECHCG, 1.28 kg/ha; assay type: in vivo, Echinochloa crus-galli; settings: dosage 1280 g/ha, visual rating about 3 weeks after treatment vs untreated controls
In short: as §3

[33] = system: STEME; assay: Post-emergence action against STEME, 1.28 kg/ha; assay type: in vivo, Stellaria media; settings: dosage 1280 g/ha, visual rating about 3 weeks after treatment vs untreated controls (100% = plants died)
In short: as §3

[34] = system: DIGSA; assay: Pre-emergence action at 320 g/ha against DIGSA; assay type: in vivo, Digitaria sanguinalis; settings: visual scoring after about 3 weeks vs untreated controls
In short: as §2

[35] = system: AVEFA; assay: Post-emergence action at 320 g/ha against AVEFA; assay type: in vivo; settings: visual rating about 3 weeks after treatment vs untreated controls
Excerpt: Accordingly, the compounds of the invention have good herbicidal action against a broad spectrum of weed grasses and broad-leaved weeds and are therefore suitable for controlling unwanted vegetation by the post-emergence method. • b) Seeds of monocotyledonous and dicotyledonous weeds and crop plants are placed in sandy loam in plastic or organic planting pots, covered with soil and cultivated in a greenhouse under controlled growth conditions. 2 to 3 weeks after sowing, the test plants are treated at the one-leaf stage. The compounds of the invention, formulated in the form of wettable powders (WP) or as emulsion concentrates (EC), are then sprayed onto the green parts of the plants as aqueous suspension or emulsion with addition of 0.5% additive at a water application rate of 600 l/ha (converted). After the test plants have been kept in the greenhouse under optimum growth conditions for about 3 weeks, the activity of the preparations is rated visually in comparison to untreated controls. For example, 100% activity=the plants have died, 0% activity=like control plants. Tables 39 to 49 below show the effects of selected compounds of the general formula (I) according to Tables 1 and 2 on various harmful plants and at an application rate corresponding to 320 g/ha, which were obtained by the experimental procedure mentioned above.

Row | Compound | Pre-emergence action against LOLRI [1] | Pre-emergence action against SETVI in % [2] | Post-emergence action against LOLRI [3] | Pre-emergence action against POAAN [4] | Pre-emergence action against AVEFA in % [5] | Pre-emergence action against AMARE [7] | Post-emergence action against KCHSC [8] | Post-emergence action against ABUTH [9] | Pre-emergence action against ALOMY [11] | Pre-emergence action against KCHSC [12] | Post-emergence action against AMARE [13] | Pre-emergence action against STEME [14] | Post-emergence action against VERPE [15] | Pre-emergence action against ECHCG [20] | Pre-emergence action against VERPE [21] | Pre-emergence action against MATIN [23] | Post-emergence action against MATIN [25] | Pre-emergence action against DIGSA [29] | Pre-emergence action against SETVI [30] | Post-emergence action against POAAN [31] | other results
1 | O=C(O)CNC(=O)COc1nn(-c2ccccc2F)c(-c2ccc(F)nc2)c1Br [Example X-021-a] | 100% | 100% | 100% | 100% | 100% | 100% | 100% | 100% | 100% | 90% | 100% | 100% | 100% | 100% | 100% | 100% | 90% | 100% | 100% | 100% | Pre-emergence action against ECHGC in % [6]: 100%; Post-emergence action against SETVI [10]: 100%; Post-emergence action against ALOMY [16]: 100%; Pre-emergence action against VERPE in % [17]: 100%; Pre-emergence action against AMARE in % [18]: 100%; Pre-emergence action against LOLRI in % [19]: 100%; Pre-emergence action against MATIN in % [22]: 90%; Pre-emergence action at 320 g/ha against ALOMY in % [24]: 100%; Pre-emergence action against POLCO in % [26]: 100%; Post-emergence action against DIGSA [27]: 100%; Pre-emergence action against VIOTR in % [28]: 100%; Post-emergence action against ECHCG [32]: 100%
2 | CCOC(=O)COc1nn(-c2ccc(F)cc2)c(-c2ccc(F)nc2)c1Br [VII-065] | 100% | – | 90% | 100% | – | 100% | 100% | 90% | 100% | 100% | 90% | 100% | 90% | 100% | 100% | 90% | 100% | 100% | 100% | 100% | Post-emergence action against SETVI [10]: 90%; Post-emergence action against ALOMY [16]: 100%; Post-emergence action against STEME [33]: 100%; Post-emergence action against DIGSA [27]: 100%; Post-emergence action against ECHCG [32]: 100%
3 | C[C@@H](Oc1nn(-c2ccccc2F)c(-c2cncnc2)c1[N+](=O)[O-])C(=O)O [VI-016] | 100% | 100% | – | 100% | 80% | 100% | – | – | 90% | 100% | 100% | 100% | 90% | 100% | 100% | 100% | 90% | 100% | 100% | 100% | Pre-emergence action against VERPE in % [17]: 100%; Pre-emergence action against AMARE in % [18]: 100%; Pre-emergence action against LOLRI in % [19]: 100%; Pre-emergence action against MATIN in % [22]: 100%; Pre-emergence action against DIGSA in % [34]: 100%; Pre-emergence action at 320 g/ha against ALOMY in % [24]: 100%; Pre-emergence action against POLCO in % [26]: 90%; Pre-emergence action against VIOTR in % [28]: 100%; Post-emergence action against AVEFA in % [35]: 90%
